This note sets out measurements from article PMC11184945, “Inhibition mechanism investigation of quercetagetin as a potential tyrosinase inhibitor” (Frontiers in Chemistry, 2024).

The target in this assay is T1, tyrosinase (mushroom) (Agaricus bisporus, UniProt C7FF04).
T1 construct: gene PPO3
In words: L-dopa oxidation assay at […] nm with Lineweaver-Burk kinetics (Ki […], Kis […]); static fluorescence quenching, CD. The assay is classed as biochemical.

For orientation: IC50 means the concentration needed to halve the response being measured. Higher therefore signals weaker potency.

T1 sequence (C7FF04 2-392): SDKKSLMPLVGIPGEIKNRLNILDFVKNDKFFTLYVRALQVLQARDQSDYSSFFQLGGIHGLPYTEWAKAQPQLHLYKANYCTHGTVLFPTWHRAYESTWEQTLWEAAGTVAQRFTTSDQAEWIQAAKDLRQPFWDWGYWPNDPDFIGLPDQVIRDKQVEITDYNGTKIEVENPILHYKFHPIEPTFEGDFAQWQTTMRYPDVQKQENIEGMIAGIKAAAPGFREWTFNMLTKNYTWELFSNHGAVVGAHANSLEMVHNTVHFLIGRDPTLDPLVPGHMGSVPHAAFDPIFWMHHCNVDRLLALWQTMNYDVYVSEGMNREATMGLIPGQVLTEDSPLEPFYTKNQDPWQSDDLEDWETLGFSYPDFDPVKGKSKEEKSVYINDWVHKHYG

In the case of `O=c1c(O)c(-c2ccc(O)c(O)c2)oc2cc(O)c(O)c(O)c12` [quercetagetin, 3,3′,4′,5,6,7-hexahydroxyflavone], it took 190 ± 10 µM to reach half-maximal inhibition (IC50).
